What was measured:
mouse embryos at E12.5 = assay: Mitotic arrest by nocodazole injection into mouse embryos; assay type: in vivo; conditions: E12.5, 2 hrs prior to sacrifice
murine HSPCs = assay: Addition of Tgfβ1 to newly formed murine HSPCs; assay type: cell-based; conditions: preliminary mouse studies
[1] = tested on: wild type E11 whole AGM explants; assay: AGM explant culture with DAPT, HE ratio by FACS; assay type: cell-based, mouse
Source text: Currently it is not possible to predict which specific endothelial cell within a hemogenic vascular bed will transition to a hematopoietic fate. Also not known is whether endothelial cells comprising the same hemogenic site are all capable of EHT. So whether the actual cell fate conversion is a stochastic event or a predetermined fate change remains to be seen. To circumvent the current obstacles of EHT prediction, we adopted a fate tracing strategy^48 that allows measurement of traced hematopoietic cell populations from labeled endothelial precursors within a specific hemogenic vascular site. By inducing endothelial recombination of Sox17 in AGM explants using the Cdh5(PAC)-CreERT2/RTom/Sox17flox transgenic mouse line, the number of EHT derived hematopoietic cells can be quantified through fate mapping (FIG. 13c, and FIG. 25C). Tamoxifen induction in vitro with the active metabolite 4-hydroxytamoxifen (4-OHT) at E11.0 allows immediate ablation in AGM explants during EHT, and the calculation of a HE ratio which we define as traced hematopoietic cells (HCs) compared to traced endothelial cells (ECs). […] The observed increase in HE ratios and HSPC number is not due to proliferation effects (as measured by BrdU incorporation, FIG. 25D), nor is the higher HE ratio due to changes in cell death (Annexin-V staining, supplementary FIG. 25D). We also observe increases in maturing hematopoietic populations (CD31−CD117+Sca1+Td+), FIG. 25E. In addition, when a similar strategy is applied to earlier explants (E9.5) prior to hematopoietic cell cluster emergence, we observe similar trends in the HE ratio (FIG. 25F). […] To further evaluate the role of Sox17 in this process, we undertook gain-of-function studies in wildtype AGM explants using adenoviral-mediated overexpression of human Sox17 (AdhSox17-GFP), FIG. 13g. GFP expression in explants overlapped with SOX17 co-staining (FIG. 13h), allowing for cell sorting of AGM endothelial cells (CD31+) that were either successfully infected (GFP+) or not infected (GFP−) by AdhSox17-GFP, FIG. 13i. […] We also show the known positive regulation of Notch1 by Sox17, and regulation of other SoxF family members, Sox7 and Sox18.
Whole embryos or AGMs were dissociated as described67 and stained for 30 min at 4° C. with agitation. Single cell suspensions were sorted in a BD FACS Aria III. Flow cytometric analyses were performed on a FACS Verse or FACS Aria III with FACSDiva 8.0 software (BD Biosciences) and data analyzed using FlowJo v10.0.7 (Tree Star). Gating strategy in FIG. 25C, see Table 7 for a list of antibodies.
AGMs from Cdh5(PAC)-CreERT2/R26RTd/Sox17 and Notch1 floxed embryos were dissected and cultured for 24 hrs in 4-hydroxytamoxifen 4-OHT (Sigma H7904) as previously described48, at E11 (and E9.5 for Sox17 mutants). In vivo induction was achieved by intraperitoneal injection of 0.8 mg of tamoxifen of pregnant dams at E9.5. Tamoxifen (MP Biomedical, 156738) prepared as previously described48. DAPT γ-secretase inhibitor (Sigma, D5942) was prepared in DMSO and added directly to explant culture medium at final concentrations of 25 μM, 50 μM, 100 μM, or 200 μM. For overexpression studies, AGMs were incubated with 8×10^7 adenoviral particles per milliliter at 37 C with agitation for 1 hr prior to explant culture48. Adeno-CMV-hSox17-GFP (AdhSox17-GFP) was produced by Vector Biolabs (ADV-224019, Ref Seq: BC140307).

Compound: COC(=O)Nc1nc2ccc(C(=O)c3cccs3)cc2[nH]1 [nocodazole]
- mitotic arrest in the endothelium (mouse embryos at E12.5): not arrested in mitosis
- mitotic arrest in the myocardium (mouse embryos at E12.5): multiple cell division arrests

Compound: Tgfβ1: transforming growth factor β1
- maturation of HSPCs (murine HSPCs): may accelerate their maturation

Compound: C[C@H](NC(=O)Cc1cc(F)cc(F)c1)C(=O)N[C@H](C(=O)OC(C)(C)C)c1ccccc1 [DAPT]
- HE ratios after AGM explants were exposed [1]: increased HE ratios
- HE ratio in comparison to control ([1]; 50-100 μM DAPT, 24 hours, control DMSO): significant increase
- Wildtype HE ratio (DAPT), Mean ([1]; WT + 25 μM, 24 hours): 0.9771
- Wildtype HE ratio (DAPT), Mean ([1]; WT + 50 μM, 24 hours): 0.9702
- Wildtype HE ratio (DAPT), Mean ([1]; WT + 100 μM, 24 hours): 0.9649
- Wildtype HE ratio (DAPT), Mean ([1]; WT + 200 μM, 24 hours): 0.8264

Reference: patent US20210040452A1, “HEMATOPOIETIC CELLS AND METHODS OF USING AND GENERATING THE SAME” (The Regents of the University of California, priority 2015, published 2021)
